Results as given in ChEMBL document CHEMBL1159318, “Anti-inflammatory and anti-tumor-promoting effects of cucurbitane glycosides from the roots of Bryonia dioica” (J Nat Prod, 2002).

Key:
[1] = Cytotoxicity against human Raji cells assessed as cell viability at 1000 molar ratio after 48 hrs by trypan blue assay; format: cell-based; settings: read-out: Activity
[2] = system: Raji; experiment: Inhibition of TPA-induced EBV-early antigen activation in human Raji cells at 10 molar ratio after 48 hrs relative to TPA; values are per cent of control; settings: human gammaherpesvirus 4
[3] = system: Raji; experiment: Inhibition of TPA-induced EBV-early antigen activation in human Raji cells at 500 molar ratio after 48 hrs relative to TPA; values are per cent of control; settings: human gammaherpesvirus 4
[4] = system: Raji; experiment: Inhibition of TPA-induced EBV-early antigen activation in human Raji cells at 100 molar ratio after 48 hrs relative to TPA; values are per cent of control; settings: human gammaherpesvirus 4
[5] = system: Raji; experiment: Inhibition of TPA-induced EBV-early antigen activation in human Raji cells at 1000 molar ratio after 48 hrs relative to TPA; values are per cent of control; settings: human gammaherpesvirus 4
[6] = system: Mus musculus; experiment: Antiinflammatory activity against ICR mouse assessed as inhibition of TPA-induced ear edema compound administered topically preincubated 30 mins before TPA challenge; format: functional
[7] = system: Mus musculus; experiment: Antiinflammatory activity against ICR mouse assessed as inhibition ratio of TPA-induced ear edema at 1 mg/ear, topically preincubated 30 mins before TPA challenge relative to TPA; format: functional; design: scale not given: the % may be the effect or the level left

Compound	viability at 48 h, 1000 molar ratio [1]	level, % of control [2]	level, % of control [3]	level, % of control [4]	level, % of control [5]	ID50 [6]	Activity [7]
C[C@H](CCC(=O)C(C)(C)O)[C@H]1CC[C@@]2(C)[C@@H]3CC=C4[C@@H](CC[C@H](O[C@@H]5O[C@H](CO)[C@@H](O)[C@H](O)[C@H]5O)C4(C)C)[C@]3(C)C(=O)C[C@]12C [BRYONIOSIDE F]	60%	97.6%	29.2%	71.4%	0%		
C[C@H](CC[C@@H](O)C(C)(C)O)[C@H]1CC[C@@]2(C)[C@@H]3CC=C4[C@@H](CC[C@H](O)C4(C)C)[C@]3(C)C(=O)C[C@]12C [BRYODULCOSIGENIN]	70%	88.9%	23.6%	69.3%	0%		
O=c1c(O)c(-c2ccc(O)c(O)c2)oc2cc(O)cc(O)c12 [QUERCETIN]						1.6 mg	40%
C[C@H](C(O)CC(O)C(C)(C)O[C@@H]1O[C@H](CO)[C@@H](O)[C@H](O)[C@H]1O)[C@H]1CC[C@@]2(C)[C@@H]3CC=C4[C@@H](CC[C@H](O)C4(C)C)[C@]3(C)C(=O)C[C@]12C (stereo not given in full) [BRYONIOSIDE E]	60%	100%	37%	77.2%	11.6%	0.2 mg	94%
C[C@H](CC[C@@H](O)C(C)(C)O)[C@H]1CC[C@@]2(C)[C@@H]3C[C@@H]4O[C@]45[C@@H](CC[C@H](O[C@@H]4O[C@H](CO)[C@@H](O)[C@H](O)[C@H]4O)C5(C)C)[C@]3(C)C(=O)C[C@]12C [5ALPHA,6ALPHA-EPOXYCABENOSIDE D]	60%	95.3%	28.6%	70%	0%		
CC(=O)O[C@@H]1[C@@H](O)[C@@H](O)[C@H](O[C@H]2[C@H](O[C@H]3CC[C@@H]4C(=CC[C@@H]5[C@@]4(C)C(=O)C[C@]4(C)[C@@H]([C@H](C)CC[C@@H](O)C(C)(C)O)CC[C@@]54C)C3(C)C)O[C@H](CO)[C@@H](O)[C@@H]2O)O[C@H]1C [BRYONIOSIDE C]	60%	100%	30.2%	73.5%	0%	0.3 mg	83%
C[C@H](CC[C@@H](O)C(C)(C)O)[C@H]1CC[C@@]2(C)[C@@H]3CC=C4[C@@H](CC[C@H](O[C@@H]5O[C@H](CO)[C@@H](O)[C@H](O)[C@H]5O)C4(C)C)[C@]3(C)C(=O)C[C@]12C [CABENOSIDE D]	60%	94.1%	26.1%	69.3%	0%	0.6 mg	66%
COc1ccc2c(c1)c(CC(=O)O)c(C)n2C(=O)c1ccc(Cl)cc1 [INDOMETHACIN]						0.3 mg	96%
CC(C)(O)CCC(=O)[C@@](C)(O)[C@H]1[C@H](O)C[C@@]2(C)[C@@H]3CC=C4[C@@H](C=C(O[C@@H]5O[C@H](CO)[C@@H](O)[C@H](O)[C@H]5O)C(=O)C4(C)C)[C@]3(C)C(=O)C[C@]12C [BRYOAMARIDE]	60%	96%	28.7%	71.7%	0%	0.7 mg	51%
CC1=C(/C=C/C(C)=C/C=C/C(C)=C/C=C/C=C(C)/C=C/C=C(C)/C=C/C2=C(C)CCCC2(C)C)C(C)(C)CCC1		100%	34.2%	82.1%	8.6%		
C[C@H](CCC(=O)C(C)(C)O)[C@H]1CC[C@@]2(C)[C@@H]3CC=C4[C@@H](CC[C@H](O[C@@H]5O[C@H](CO)[C@@H](O)[C@H](O)[C@H]5O[C@@H]5O[C@@H](C)[C@H](O)[C@@H](O)[C@H]5O)C4(C)C)[C@]3(C)C(=O)C[C@]12C [BRYONIOSIDE G]	60%	100%	30.6%	74.2%	0%	0.2 mg	90%
C[C@H](CC[C@@H](O)C(C)(C)O[C@@H]1O[C@H](CO)[C@@H](O)[C@H](O)[C@H]1O)[C@H]1CC[C@@]2(C)[C@@H]3CC=C4[C@@H](CC[C@H](O)C4(C)C)[C@]3(C)C(=O)C[C@]12C [BRYONIOSIDE A]	60%	100%	30.4%	75.1%	3.4%		
C[C@H](CC[C@@H](O)C(C)(C)O)[C@H]1CC[C@@]2(C)[C@@H]3CC=C4[C@@H](CC[C@H](O[C@@H]5O[C@H](CO)[C@@H](O)[C@H](O)[C@H]5O[C@@H]5O[C@@H](C)[C@H](O)[C@@H](O)[C@H]5O)C4(C)C)[C@]3(C)C(=O)C[C@]12C [BRYONIOSIDE B]	60%	97.4%	29.9%	72.7%	0%	0.2 mg	94%
C[C@H](CCC(=O)C(C)(C)O)[C@H]1CC[C@@]2(C)[C@@H]3CC=C4[C@@H](CC[C@H](O)C4(C)C)[C@]3(C)C(=O)C[C@]12C [BRYOSIGENIN]	70%	92.7%	28.9%	73.5%	0%		
